Measured values reported in ChEMBL document CHEMBL1201862, “PubChem BioAssay data set” (2004).
Where a name gives a salt, the structure may show the parent alone. The source made the active and inactive calls.

Columns and labels:
[1] = target: T1, Sentrin-specific protease 8 (Homo sapiens, UniProt Q96LD8); format: functional;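 also: luminescence read-out of SENP8 inhibition, dose-response confirmation following an ultra-high-throughput screen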
T1 sequence (Q96LD8 whole entry): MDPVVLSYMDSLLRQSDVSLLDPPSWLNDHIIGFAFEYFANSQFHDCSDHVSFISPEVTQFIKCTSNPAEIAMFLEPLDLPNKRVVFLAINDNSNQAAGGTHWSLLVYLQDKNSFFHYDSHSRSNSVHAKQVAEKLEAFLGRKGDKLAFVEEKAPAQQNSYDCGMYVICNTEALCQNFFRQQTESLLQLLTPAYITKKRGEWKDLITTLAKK

Caspase-3 = target: T2, Caspase-3 (Homo sapiens, UniProt P42574); format: functional;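 also: Dose-response selectivity test against caspase-3 for candidate inhibitors of sentrin-specific proteases (SENPs)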
T2 sequence (P42574 whole entry): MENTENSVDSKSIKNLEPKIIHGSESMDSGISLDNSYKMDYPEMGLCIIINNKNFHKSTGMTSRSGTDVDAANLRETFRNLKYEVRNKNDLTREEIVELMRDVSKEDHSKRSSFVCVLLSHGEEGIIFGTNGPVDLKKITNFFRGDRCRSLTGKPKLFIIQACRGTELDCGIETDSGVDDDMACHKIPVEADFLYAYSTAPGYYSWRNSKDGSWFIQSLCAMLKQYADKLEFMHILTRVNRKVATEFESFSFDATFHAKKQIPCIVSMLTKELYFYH

[2] = target: Heat shock protein HSP 90-alpha (Homo sapiens, UniProt P07900); format: functional, organism-based
Protein RecA = target: T3, Protein RecA (Mycobacterium tuberculosis, UniProt P9WHJ3); assay: Fluorescence Cell-Free Homogeneous Dose Retest to Identify Inhibitors of RecA-Intein Splicing Activity. [Related pubchem assays (depositor defined):AID2097, AID2223, AID489010, AID492950]; format: functional
T3 sequence (P9WHJ3 whole entry): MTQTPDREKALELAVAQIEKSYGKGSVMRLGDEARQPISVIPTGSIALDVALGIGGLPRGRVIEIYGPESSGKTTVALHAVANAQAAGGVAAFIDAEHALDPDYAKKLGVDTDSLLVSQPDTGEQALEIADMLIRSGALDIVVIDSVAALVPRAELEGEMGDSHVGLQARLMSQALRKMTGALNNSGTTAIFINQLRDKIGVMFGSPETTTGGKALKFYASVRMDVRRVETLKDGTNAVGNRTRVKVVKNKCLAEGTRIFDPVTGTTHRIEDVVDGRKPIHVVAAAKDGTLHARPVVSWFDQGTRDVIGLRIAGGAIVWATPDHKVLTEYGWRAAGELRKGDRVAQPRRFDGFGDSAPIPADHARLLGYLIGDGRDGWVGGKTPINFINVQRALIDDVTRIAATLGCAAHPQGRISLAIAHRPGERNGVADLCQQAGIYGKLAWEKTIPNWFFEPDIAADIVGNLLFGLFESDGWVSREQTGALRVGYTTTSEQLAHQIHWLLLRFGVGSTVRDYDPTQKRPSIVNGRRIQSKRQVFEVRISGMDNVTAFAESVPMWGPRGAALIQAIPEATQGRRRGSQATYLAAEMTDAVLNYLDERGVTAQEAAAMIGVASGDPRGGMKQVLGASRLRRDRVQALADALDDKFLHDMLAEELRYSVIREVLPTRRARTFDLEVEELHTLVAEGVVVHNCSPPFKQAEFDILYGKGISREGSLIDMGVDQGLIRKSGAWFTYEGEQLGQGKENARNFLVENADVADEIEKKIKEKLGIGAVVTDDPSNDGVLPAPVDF

[3] = target: T4, Replicative DNA helicase DnaB (Mycobacterium tuberculosis, UniProt P9WMR3); assay: DnaB intein splicing inhibitors, dose response, biochemical, cell-free fluorescence (AID 449749); format: functional
T4 sequence (P9WMR3 whole entry): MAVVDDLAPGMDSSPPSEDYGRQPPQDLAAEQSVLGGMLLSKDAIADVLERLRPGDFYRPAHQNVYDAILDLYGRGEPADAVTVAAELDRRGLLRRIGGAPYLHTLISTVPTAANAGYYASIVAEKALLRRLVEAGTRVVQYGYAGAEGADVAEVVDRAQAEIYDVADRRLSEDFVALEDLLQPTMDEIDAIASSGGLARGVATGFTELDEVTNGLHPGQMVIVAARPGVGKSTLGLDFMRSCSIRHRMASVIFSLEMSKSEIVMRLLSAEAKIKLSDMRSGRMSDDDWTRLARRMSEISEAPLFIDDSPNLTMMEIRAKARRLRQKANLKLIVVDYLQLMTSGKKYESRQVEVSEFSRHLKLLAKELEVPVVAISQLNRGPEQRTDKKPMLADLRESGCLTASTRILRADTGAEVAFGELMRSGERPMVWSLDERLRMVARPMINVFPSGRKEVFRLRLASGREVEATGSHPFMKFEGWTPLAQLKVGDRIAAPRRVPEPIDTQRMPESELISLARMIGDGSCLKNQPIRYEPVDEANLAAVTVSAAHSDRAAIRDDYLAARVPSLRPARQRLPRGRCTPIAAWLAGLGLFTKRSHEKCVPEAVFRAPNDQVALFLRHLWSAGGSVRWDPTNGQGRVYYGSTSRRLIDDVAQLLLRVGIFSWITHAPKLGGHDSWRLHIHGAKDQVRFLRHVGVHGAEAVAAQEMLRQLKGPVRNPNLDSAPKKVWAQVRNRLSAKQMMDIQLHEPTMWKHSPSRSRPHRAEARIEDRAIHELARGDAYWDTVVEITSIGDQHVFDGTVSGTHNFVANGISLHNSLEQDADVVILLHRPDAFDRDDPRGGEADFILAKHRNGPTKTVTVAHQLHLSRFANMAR

With `CCC(C)n1c(NC(=O)c2ccccc2)c(C#N)c2nc3ccccc3nc21` (configuration not stated) as the molecule, how does the IC50 [1] read?
Its IC50 is 2.24 µM (active).

What about the IC50 (Caspase-3) of the same molecule?
The IC50 was 13.3 µM (active).

`CCN1/C(=C\c2ccc3ccccc3[n+]2CC)Sc2cc(C)ccc21` was tested. Which AC50 [2] did it give?
Its AC50 is 7.75 µM (active).

How did the EC50 (Protein RecA) turn out when `CCCCCCCCCCOC(=O)C[n+]1c(COc2ccc(C)cc2)n(C)c2ccccc21` was run?
The EC50 was 11.7 µM (active).

What about the AC50 [3] of the same molecule?
Its AC50 is 3.82 µM (active).

What about the AC50 [2] of the same molecule?
The AC50 was 19.3 µM (active).

For `O=C(CCl)Oc1ccc2occ(C(=O)c3cccs3)c2c1`, which IC50 [1] is on record?
Its IC50 is 38.2 µM (active).

What about the EC50 (Protein RecA) of the same molecule?
Its EC50 is 19.3 µM (active).

What about the AC50 [3] of the same molecule?
The AC50 was 16.8 µM (active).

What about the IC50 (Caspase-3) of the same molecule?
Its IC50 is 21.4 µM (active).

Which results are given for `CC[C@@H](CO)NC(=O)[C@@H]1C=C2c3cccc4c3c(cn4C)C[C@H]2N(C)C1` [METHYSERGIDE MALEATE]?
EC50 (Protein RecA): 237 µM (active); AC50 [3]: > 380 µM (inactive)
